The values below come from publication PMC10980656 (CNS Drugs, 2024).

For data set [1] the following is noted: cited from earlier work.
The next data set is described as follows: clinical. To be noted: both, human, in vivo; for AUC(0-t): AUC0–tz (geoMean); for Cmax: Cmax (geoMean), healthy subjects.
For data set [2] the following is noted: repeated freeze/thaw cycles, short- (24 h) and long-term (30 day) storage; cited from earlier work.
The subject of the next data set is healthy women and men. To be noted: mild.
[3] abbreviates: iv, 30 mg, plasma, single IV 30 mg fasudil over 30 min.

Each structure is given as a SMILES string. Where a name gives a salt, the structure may show the parent alone. Read-outs that look alike come from different tables or passages of the source.

The half-life is how long it takes for the measured level to halve. A lower half-life goes with fast loss. In general, Tmax refers to the time at which the peak concentration occurs. As a reminder, the AUC(0-t) is exposure summed from dosing to a finite time, without extrapolation to infinity. High values mean more exposure, low ones less exposure. By AUC(0-inf) is commonly meant total exposure, with the tail of the curve extrapolated. For orientation: Cmax means the peak of the concentration-time curve.

For `O=S(=O)(c1cccc2c(O)nccc12)N1CCCNCC1` [hydroxyfasudil], in data set [1] (after IV administration of fasudil), the serum half-life is 100 to 200 min. Besides, the “exposure (AUC)” value in data set [1] (after IV applications (30 mg fasudil over 30 min)) was 400 to 555 ng·h/mL; in data set [1] (investigational oral solution, 40 mg fasudil hydrochloride), 300 ng·h/mL. Besides, under “both, human, in vivo”, the “AUC0–tz LS mean ratio (oral/IV treatment) point estimate (90% CI)” value is on record as 64.52 (60.32–69.01) %. For the same compound, the “AUC0–∞ LS mean ratio (oral/IV treatment) point estimate (90% CI)” value (both, human, in vivo) was 64.76 (60.11–69.78) %. Also, the “hydroxyfasudil concentration after oral treatment compared with IV treatment” value (linear mixed-effect model of the full analysis set) is 65%. The “Cmax LS mean ratio (oral/IV treatment) point estimate (90% CI)” value (linear mixed-effects model) is on record as 102.97 (89.53–118.43) %. Also, the half-life in “clinical” (iv) is 342 min; in “clinical” (po, 30 mg) it was 332 min. The Tmax in the data set “clinical” (iv, 30 mg) is 45 min; in the data set “clinical” (po, 30 mg), 30 min. For the same compound, in “clinical” (setting [3]), the AUC(0-t) was 439 ng·h/mL. The compound further registered a total exposure AUC(0-inf) in “clinical” (iv, 30 mg, AUC0–∞ (geoMean), plasma, single IV 30 mg fasudil over 30 min) of 460 ng·h/mL. In “clinical” (setting [3]), this compound displayed a Cmax of 108 ng/mL. Moreover, the “sample stability (human plasma)” value in data set [2] is listed as over 94%.

As to `O=S(=O)(c1cccc2cnccc12)N1CCCNCC1` [fasudil, fasudil hydrochloride, reference compound], the “subjects with TEAE assessed as related to the IMP ("headache")” value in the data set with healthy women and men (IV treatment, one subject, recovered/resolved) is listed as 7.1%. In addition, the “treatment emergent adverse events (TEAEs), oral treatment” value with healthy women and men (oral fasudil, "fatigue", not related to the IMP) is “One TEAE”. In addition, the Tmax in the data set “clinical” (iv, 30 mg) is 22.5 min; in “clinical” (po, 30 mg) it was 15 min. In “clinical” (setting [3]), this compound gave an AUC(0-t) of 55.6 ng·h/mL. For the same compound, the Cmax in “clinical” (setting [3]) was 101 ng/mL.
